“Also recorded” adds a separate entry of the source. Each block holds one molecule with its values, some of them ahead of it.
Assays:
[1] = system: non-homologous end-joining (NHEJ) of DNA by PC-C (Ku70/80, DNA-PKcs, XRCC4, DNA ligase IV); test: DNA end-joining (NHEJ) complementation assay with HeLa fraction PC-C; type: biochemical, human; details: for ability to stimulate DNA end-joining (NHEJ) by PC-C: FIG. 4C, 6A, 8; for concentration that saturates the NHEJ system / Kd: components derived from humans; for Kd: crude estimate, read-out: estimate of the Kd in the NHEJ system; for stimulation of NHEJ by PC-C relative to IP6: FIG. 8
Procedure: Fraction PC-C was dialyzed for 2 hours against L buffer (20 mM Tris-HCl pH 8.0, 25 mM KOAc, 0.5 mM EDTA, 10% glycerol, 1 mM DTT) and stored at −80° C.
End joining reactions (10 μl) were carried out in 50 mM HEPES pH 8.0, 40 mM KOAc, 0.5 mM Mg(OAc)2, 1 mM ATP, 1 mM DTT, 0.1 mg/ml BSA, contained 2-3 μl (3-5 μg) of PC-C and HindIII-linearized 5′-^32P-labeled pDEA7Z DNA (10 ng). Incubation was for 1 hour at 37° C. ^32P-labeled DNA products were deproteinized and analyzed by electrophoresis through 0.6% agarose gels followed by autoradiography. Quantification of joining efficiency was carried out by phosphorimaging and the data are presented as (% total ends-joinedsample)−(% total ends-joinedPC-C) unless otherwise stated. For assays of inositol phosphates, aqueous solutions were added directly to the end-joining reactions. For the screening of column fractions; 0.5-1 μl of diluted (in L buffer) or undiluted column fractions were added

[2] = target: T1, T4 DNA ligase (Enterobacteria phage T4, UniProt P00970); test: T4 DNA ligation assay; type: biochemical; details: 2 μM IP6, T4 DNA ligase 0.1 u/μl, FIG. 6B
T1 construct: purchased NEB
T1 sequence (P00970 1-487): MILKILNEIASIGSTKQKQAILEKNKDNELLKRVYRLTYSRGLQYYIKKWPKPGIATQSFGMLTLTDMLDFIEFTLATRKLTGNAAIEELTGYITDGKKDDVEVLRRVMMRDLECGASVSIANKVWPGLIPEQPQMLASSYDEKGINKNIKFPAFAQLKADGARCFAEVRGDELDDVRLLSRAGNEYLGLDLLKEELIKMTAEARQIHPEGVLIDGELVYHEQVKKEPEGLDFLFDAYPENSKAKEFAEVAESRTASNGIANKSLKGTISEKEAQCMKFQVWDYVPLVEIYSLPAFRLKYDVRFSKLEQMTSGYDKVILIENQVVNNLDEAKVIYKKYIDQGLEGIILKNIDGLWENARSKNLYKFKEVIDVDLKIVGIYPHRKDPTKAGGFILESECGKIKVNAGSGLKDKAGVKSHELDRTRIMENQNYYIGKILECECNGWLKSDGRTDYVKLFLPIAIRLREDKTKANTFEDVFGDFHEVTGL
Procedure: Reactions (10 μl) containing T4 DNA ligase (NEB) were carried out in 1×T4 DNA ligase buffer (NEB) at 25° C. in the presence and absence of inositol phosphates. Reactions were stopped, deproteinized and the products analyzed by agarose gel electrophoresis.

[3] = target: T2, DNA-PK (Homo sapiens, UniProt P12956+P13010); test: Gel filtration analysis of 3H-inositol phosphate binding by DNA-PK; details: for binding by DNA-PK: gel filtration, 100 nM 3H-ligand, FIG. 7
T2 construct: purchased Promega
T2 sequence (P12956 2-609 limits assumed): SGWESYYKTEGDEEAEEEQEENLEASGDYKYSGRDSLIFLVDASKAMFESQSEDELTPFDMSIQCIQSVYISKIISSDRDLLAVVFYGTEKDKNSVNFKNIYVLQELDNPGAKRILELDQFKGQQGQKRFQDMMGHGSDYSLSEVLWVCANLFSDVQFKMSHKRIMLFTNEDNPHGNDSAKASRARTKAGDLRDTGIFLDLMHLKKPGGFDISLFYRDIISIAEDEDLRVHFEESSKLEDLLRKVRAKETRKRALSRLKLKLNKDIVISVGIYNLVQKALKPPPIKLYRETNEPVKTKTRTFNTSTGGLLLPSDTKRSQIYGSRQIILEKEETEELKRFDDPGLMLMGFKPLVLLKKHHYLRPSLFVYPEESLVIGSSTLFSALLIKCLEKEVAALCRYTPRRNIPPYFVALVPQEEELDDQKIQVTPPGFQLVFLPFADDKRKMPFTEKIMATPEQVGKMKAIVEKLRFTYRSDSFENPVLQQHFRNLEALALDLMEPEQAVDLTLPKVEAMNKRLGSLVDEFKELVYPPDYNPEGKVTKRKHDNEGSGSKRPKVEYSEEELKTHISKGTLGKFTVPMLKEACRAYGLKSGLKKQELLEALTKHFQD
T2 sequence (P13010 2-732 limits assumed): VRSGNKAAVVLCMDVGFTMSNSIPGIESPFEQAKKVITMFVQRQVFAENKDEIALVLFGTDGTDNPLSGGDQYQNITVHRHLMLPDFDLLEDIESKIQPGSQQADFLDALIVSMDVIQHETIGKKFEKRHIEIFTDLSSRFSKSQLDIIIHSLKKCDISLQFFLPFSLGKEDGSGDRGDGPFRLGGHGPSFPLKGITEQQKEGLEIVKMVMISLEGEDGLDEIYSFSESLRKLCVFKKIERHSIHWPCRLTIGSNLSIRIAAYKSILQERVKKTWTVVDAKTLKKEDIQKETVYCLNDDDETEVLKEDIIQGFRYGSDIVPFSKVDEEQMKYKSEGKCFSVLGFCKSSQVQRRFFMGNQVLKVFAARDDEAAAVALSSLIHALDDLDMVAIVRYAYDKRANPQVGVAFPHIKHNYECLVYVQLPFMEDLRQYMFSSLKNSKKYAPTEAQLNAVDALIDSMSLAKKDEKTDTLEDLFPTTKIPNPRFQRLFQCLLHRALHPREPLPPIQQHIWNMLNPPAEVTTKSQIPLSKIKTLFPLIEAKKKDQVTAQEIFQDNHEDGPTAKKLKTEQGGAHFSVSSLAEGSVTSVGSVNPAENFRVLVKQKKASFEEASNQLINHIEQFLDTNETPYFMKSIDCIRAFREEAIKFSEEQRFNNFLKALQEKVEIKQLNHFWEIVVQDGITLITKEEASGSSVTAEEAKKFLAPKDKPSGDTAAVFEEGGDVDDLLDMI
Procedure: Binding reactions (55 μl) were carried out in 25 mM HEPES pH 7.5, 50 mM KCl, 10 mM MgCl2, 1 mM DTT, 10% glycerol, 0.1% NP-40 with 5000 units of DNA-PK (Promega) or 1.8 mg/ml of protein size standards for gel filtration (BioRad) and 100 nM ^3H-IP6 or ^3H-IP3 at 4° C. for 30 min. Complexes were resolved on a Superose 12 PC3.2/30 column run in 50 mM HEPES pH 8.0, […], 0.1M KCl, 10% glycerol, 1 mM DTT at 40 μl/min. 50 μl fractions were collected; 20 μl samples of each fraction were used for ^3H scintilation counting (10 min/sample in 5 ml EcoscintA) and 10 μl were assayed for DNA-PK kinase activity using the SignaTECT DNA-PK assay system (Promega).
The specificity of IP6 recognition by DNA-PK was assessed by competition trials using inositol hexasulphate (IS6). […] Addition of DNA-PK results in an increase in the mobility of the ^3H-IP6 indicating complex formation. IS6, presented in 10- and 100-fold molar excess have no effect on the amount of ^3H-IP6 bound by DNA-PK.

[4] = target: T3, Ku 70/80 heterodimer (Homo sapiens, UniProt P12956+P13010); test: Gel filtration binding and competition analysis with purified Ku 70/80; details: for binding by Ku 70/80 heterodimer: gel filtration, FIG. 10-12; for loss in 3H-IP6 binding by Ku (competition): one molar equivalent of competitor
T3 construct: made in house
T3 sequence (P12956 whole entry): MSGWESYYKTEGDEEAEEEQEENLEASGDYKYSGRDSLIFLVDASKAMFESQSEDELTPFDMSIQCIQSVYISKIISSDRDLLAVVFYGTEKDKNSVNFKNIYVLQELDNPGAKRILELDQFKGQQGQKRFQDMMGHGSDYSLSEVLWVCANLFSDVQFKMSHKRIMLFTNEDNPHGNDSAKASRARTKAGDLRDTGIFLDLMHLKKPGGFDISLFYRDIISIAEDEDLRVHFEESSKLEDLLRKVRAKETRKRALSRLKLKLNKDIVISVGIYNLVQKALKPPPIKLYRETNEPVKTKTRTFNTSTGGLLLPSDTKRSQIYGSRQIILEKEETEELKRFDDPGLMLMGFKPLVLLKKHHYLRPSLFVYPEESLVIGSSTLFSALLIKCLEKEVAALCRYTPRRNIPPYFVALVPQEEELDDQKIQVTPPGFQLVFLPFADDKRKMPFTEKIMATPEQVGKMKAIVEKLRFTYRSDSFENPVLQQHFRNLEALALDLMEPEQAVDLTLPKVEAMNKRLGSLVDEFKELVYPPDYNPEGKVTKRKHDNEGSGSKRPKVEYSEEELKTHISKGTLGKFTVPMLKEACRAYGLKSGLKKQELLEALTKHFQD
T3 sequence (P13010 whole entry): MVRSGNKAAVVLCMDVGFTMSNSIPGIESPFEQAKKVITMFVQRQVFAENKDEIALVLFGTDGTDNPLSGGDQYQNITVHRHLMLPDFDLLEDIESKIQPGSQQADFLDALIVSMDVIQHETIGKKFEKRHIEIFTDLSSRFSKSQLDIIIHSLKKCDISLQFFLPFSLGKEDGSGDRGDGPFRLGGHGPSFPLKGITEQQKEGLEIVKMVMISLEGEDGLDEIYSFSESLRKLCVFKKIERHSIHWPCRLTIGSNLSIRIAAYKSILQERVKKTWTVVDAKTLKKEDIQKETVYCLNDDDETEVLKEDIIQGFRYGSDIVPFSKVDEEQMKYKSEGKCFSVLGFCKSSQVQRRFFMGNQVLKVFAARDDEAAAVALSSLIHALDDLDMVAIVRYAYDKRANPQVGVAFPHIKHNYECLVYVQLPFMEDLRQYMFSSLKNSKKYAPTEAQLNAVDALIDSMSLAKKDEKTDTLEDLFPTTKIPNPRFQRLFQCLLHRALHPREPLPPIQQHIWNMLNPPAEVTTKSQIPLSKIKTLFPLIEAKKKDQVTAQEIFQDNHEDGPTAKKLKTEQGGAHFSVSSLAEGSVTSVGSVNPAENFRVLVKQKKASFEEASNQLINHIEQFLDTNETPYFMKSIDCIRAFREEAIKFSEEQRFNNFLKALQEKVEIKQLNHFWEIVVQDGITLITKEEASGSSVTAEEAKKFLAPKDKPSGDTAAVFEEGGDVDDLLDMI
Procedure: (§1) Superdex 200 gel filtration, 50 μl fractions, scint. counting 20 μl/fraction 100 nM ^3H-IP6, 100 nM Ku, 100 nM DNA ([…]), 100 nM PKcs. Running buffer. 50 mM HEPES, pH 8.0, 40 mM KOAc, 10% Glycerol, 0.1 M KCl, 1 mM DTT.
(§2) Ku 70/80 and DNA-PKcs were purified to homogeneity and used to examine the binding of IP6 by DNA-PK ^3H-IP6 was used in these binding experiments and the curves presented in FIG. 10 represent the distribution of ^3H-IP6 along a gel filtration column under various conditions. ^3H-IP6 observed in a peak below 17 kD represents unbound ^3H-IP6. In the presence of purified Ku 70/80 (±DNA-PKcs) ^3H-IP6 elutes early from the column near the 150 MW point. […] It is believed that DNA-PK assembles on DNA and that in the absence of DNA that Ku and DNA-PKcs, are separate in solution. The addition of DNA to the Ku-^3H-IP6 complex results in a shift in the elution profile from the gel filtration column—the peak is broader (possibly owing to the mobility of the DNA) and has an earlier start point. […] Finally, the addition of DNA-PKcs, to the Ku-IP6DNA complex results in an additional increase in mobility along the gel filtration column. The species appears very large—near 670 kD—which is consistent with it containing Ku 70/80, ^3H-IP6, DNA-PKcs and DNA.
The specificity of IP6 binding by Ku was examined by competition analysis (FIG. 13) using IP3, IP6 and IP7. […] These findings may be extended to postulate that while IP6 is bound by Ku, that the stimulatory effect of IP6 on NHEJ probably results from additional interactions that may be regulated by formation of the IP6-Ku complex.

[5] = target: T4, DNA-PKcs (Homo sapiens, UniProt P78527); test: Gel filtration binding with purified DNA-PKcs; details: absence of DNA, FIG. 10-11
T4 construct: made in house
Procedure: as §1, §2

[6] = system: phosphatases; details: cited from earlier work
[7] = system: skin cancer development; details: mice, given orally; cited from earlier work

- ability to stimulate DNA end-joining (NHEJ) by PC-C [1]: do stimulate NHEJ by PC-C
- stimulation of NHEJ by PC-C relative to IP6 [1]: approximately 10 fold
Molecule: O=P(O)(O)O[C@H]1[C@@H](OP(=O)(O)O)[C@H](OP(=O)(O)O)[C@@H](OP(=O)(O)OP(=O)(O)O)[C@H](OP(=O)(O)O)[C@H]1OP(=O)(O)O [IP7 pp5, myo-5-diphosphoinositol 1,2,3,4,6-pentakisphosphate]

- ability to stimulate DNA end-joining (NHEJ) by PC-C [1]: do stimulate NHEJ by PC-C
- stimulation of NHEJ by PC-C relative to IP6 [1]: approximately 10 fold
Molecule: O=P(O)(O)O[C@H]1[C@@H](OP(=O)(O)O)[C@@H](OP(=O)(O)O)[C@H](OP(=O)(O)OP(=O)(O)O)[C@@H](OP(=O)(O)O)[C@@H]1OP(=O)(O)O [IP7-pp6, myo-6-diphosphoinositol 1,2,3,4,5-pentakisphosphate]

- ability to stimulate DNA end-joining (NHEJ) by PC-C [1]: unable to stimulate end-joining
Molecule: O=S(=O)(O)OC1C(OS(=O)(=O)O)C(OS(=O)(=O)O)C(OS(=O)(=O)O)C(OS(=O)(=O)O)C1OS(=O)(=O)O (stereo not drawn) [IS6, inositol hexasulphate]
- effect on the amount of 3H-IP6 bound by DNA-PK (competition) ([3]; 10- and 100-fold molar excess, FIG. 9): does not compete; also recorded: no effect

- ability to stimulate DNA end-joining (NHEJ) by PC-C ([1]; listed as myo-inositol 1,4,5-trisphosphate): inhibit end-joining
- binding by DNA-PK [3]: not
- binding by DNA-PK ([3]; listed as 3H-IP3): not altered by the presence of DNA-PK
- effect on 3H-IP6 binding by Ku (competition) ([4]; 3-fold molar excess of competitor, FIG. 13): no effect
Molecule: myo-inositol 1,4,5-trisphosphate [IP3]
- ability to stimulate DNA end-joining (NHEJ) by PC-C [1]: inhibitory; also recorded: does not stimulate NHEJ

The remaining lines, values behind:

Molecule: O=P(O)(O)OC1[C@H](O)[C@H](OP(=O)(O)O)C(OP(=O)(O)O)[C@H](OP(=O)(O)O)[C@H]1O (stereo partly drawn) [IP4, D-myo-inositol 1,3,4,5-tetrakisphosphate]
- ability to stimulate DNA end-joining (NHEJ) by PC-C [1]: able to stimulate end-joining, but the efficiency of this stimulation was reduced relative to IP6; also recorded: able to stimulate end-joining, though to a lesser extent; also recorded: stimulate NHEJ of DNA

Molecule: O=P(O)(O)O[C@@H]1[C@@H](OP(=O)(O)O)[C@H](OP(=O)(O)O)[C@H](O)[C@H](OP(=O)(O)O)[C@H]1OP(=O)(O)O [IP5, myo-inositol 1,3,4,5,6-pentakisphosphate]
- ability to stimulate DNA end-joining (NHEJ) by PC-C [1]: able to stimulate end-joining, but the efficiency of this stimulation was reduced relative to IP6; also recorded: able to stimulate end-joining, though to a lesser extent; also recorded: stimulate NHEJ of DNA

Molecule: O=P(O)(O)OC1C(OP(=O)(O)O)C(OP(=O)(O)O)C(OP(=O)(O)O)C(OP(=O)(O)O)C1OP(=O)(O)O (stereo not drawn) [IP6, myo-inositol 1,2,3,4,5,6-hexakisphosphate]
- low concentration at which end-joining can be stimulated (discussion) [1]: 100 µM
- concentration of maximal stimulation of end-joining by PC-C ([1]; FIG. 4B): 1 µM
- concentration at which end-joining by PC-C is stimulated ([1]; FIG. 4B, commercially available IP6): ~100 nM
- ability to stimulate DNA end-joining (NHEJ) by PC-C [1]: most effective inositol phosphate compound of those tested; also recorded: stimulated end-joining by PC-C; also recorded: stimulate NHEJ of DNA
- concentration that saturates the NHEJ system [1]: 10 µM
- Kd [1]: ~1 µM
- effect on efficiency of ligation by T4 DNA ligase [2]: unaffected; also recorded: no effect
- binding by DNA-PK [3]: capable of binding; also recorded: binds
- binding by Ku 70/80 heterodimer [4]: bind
- binding by Ku 70/80 heterodimer ([4]; listed as 3H-IP6): binds
- loss in 3H-IP6 binding by Ku (competition) ([4]; FIG. 13): ~50%
- interaction with DNA-PKcs [5]: does not interact
- concentration at which it functions as a phosphatase inhibitor [6]: ≥ 10 µM
- effect on skin cancer development [7]: reduces initiation of skin cancer development but not its promotion

Molecule: O=P(O)(O)OC1[C@@H](OP(=O)(O)O)[C@H](OP(=O)(O)O)C(OP(=O)(O)OP(=O)(O)O)[C@H](OP(=O)(O)O)[C@H]1OP(=O)(O)O (stereo partly drawn) [IP7, diphosphoinositol pentakisphosphate]
- stimulation of NHEJ by PC-C relative to IP6 [1]: 10 fold
- concentration that saturates the NHEJ system [1]: 1 µM
- Kd [1]: ~100 µM
- binding by DNA-PK [3]: binds
- binding by Ku 70/80 heterodimer [4]: bind
- loss in 3H-IP6 binding by Ku (competition) ([4]; FIG. 13): ~50%
